Experiment [1] deals with tRNA^phe (RNA, tRNA) GCGGAUUUAGCUCAGUUGGGAGAGCGCCAGACUGAAGAUCUGGAGGUCCUGUGUUCGAUCCACAGAAUUCGCACCA
As to the kind of experiment: ITC, single site model. Conditions: 20 mM Na+, citrate-phosphate buffer pH 7.0, 20°C, per nucleotide phosphate, per base.

For experiment [2] the test system is unchanged. Nature of the experiment: fluorescence titration, Scatchard, McGhee-von Hippel. Conditions: 20 mM Na+, citrate-phosphate buffer pH 7.0, 20°C, per nucleotide phosphate, per base.
For experiment [3] the test system is unchanged. Nature of the experiment: absorption titration, Scatchard, McGhee-von Hippel. Conditions: 20 mM Na+, citrate-phosphate buffer pH 7.0, 20°C, per nucleotide phosphate, per base.
Experiment [4] shares this test system. Nature of the experiment: DSC and optical melting. Conditions: Na+, citrate-phosphate buffer pH 7.0, third transition (61°C), first unaffected, compound concentration not stated, per base.

For the compound `COc1cccc2c1C(=O)c1c(O)c3c(c(O)c1C2=O)C[C@@](O)(C(C)=O)C[C@@H]3O[C@H]1C[C@H](N)[C@H](O)[C@H](C)O1`, in experiment [1], the K was 22.2 ± 0.1 × 10^4 M^-1. For the same compound, the “K′” value in experiment [2] is recorded as 18.58 ± 0.32 × 10^4 M^-1; in experiment [3] it was 21.20 ± 0.30 × 10^4 M^-1. In experiment [4] (second transition about 4°C), this compound gave a dTm of 12.5 °C.
Consider `COc1cccc2c1cc1c3c(cc4c(c32)OCO4)C(=O)N1[C@@H]1O[C@H](CO)[C@@H](O)[C@H](O)[C@H]1O`, for which the K in experiment [1] (240 mM DMSO) is recorded as 6.5 ± 0.3 × 10^4 M^-1. Moreover, the entries for the “K′” value in experiment [2] (240 mM DMSO) and in experiment [3] (240 mM DMSO) were 6.38 ± 0.20 × 10^4 M^-1 and 4.33 ± 0.20 × 10^4 M^-1, respectively. This compound gave a dTm in experiment [4] (second transition about 2°C) of 7 °C.
